According to PubChem BioAssay (NCI):
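In this assay, cells in 96-well plates receive the compound at five concentrations for 48 hours. Endpoints are linearly interpolated between the surrounding concentrations. The concentration for full growth arrest is given as TGI.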

Legend:
Experiment in all cases: NCI tumour cell line growth inhibition, 48 h
786-0 renal = test system: 786-0 renal
A498 renal = test system: A498 renal
A549 NSCLC = test system: A549 NSCLC
ACHN renal = test system: ACHN renal
CAKI-1 renal = test system: CAKI-1 renal
CCRF-CEM leukemia = test system: CCRF-CEM leukemia
COLO 205 colon = test system: COLO 205 colon
DLD-1 colon = test system: DLD-1 colon
DMS 114 small cell lung = test system: DMS 114 small cell lung
DMS 273 small cell lung = test system: DMS 273 small cell lung
EKVX NSCLC = test system: EKVX NSCLC
HCC-2998 colon = test system: HCC-2998 colon
HCT-116 colon = test system: HCT-116 colon
HCT-15 colon = test system: HCT-15 colon
HL-60(TB) leukemia = test system: HL-60(TB) leukemia
HOP-18 NSCLC = test system: HOP-18 NSCLC
HOP-62 NSCLC = test system: HOP-62 NSCLC
HOP-92 NSCLC = test system: HOP-92 NSCLC
HT29 colon = test system: HT29 colon
IGROV1 ovarian = test system: IGROV1 ovarian
K-562 leukemia = test system: K-562 leukemia
KM12 colon = test system: KM12 colon
KM20L2 colon = test system: KM20L2 colon
LOX IMVI melanoma = test system: LOX IMVI melanoma
LXFL 529 NSCLC = test system: LXFL 529 NSCLC
M14 melanoma = test system: M14 melanoma
M19-MEL melanoma = test system: M19-MEL melanoma
MALME-3M melanoma = test system: MALME-3M melanoma
MOLT-4 leukemia = test system: MOLT-4 leukemia
NCI-H226 lung = test system: NCI-H226 lung
NCI-H23 lung = test system: NCI-H23 lung
NCI-H460 lung = test system: NCI-H460 lung
NCI-H522 lung = test system: NCI-H522 lung
OVCAR-3 ovarian = test system: OVCAR-3 ovarian
OVCAR-4 ovarian = test system: OVCAR-4 ovarian
OVCAR-5 ovarian = test system: OVCAR-5 ovarian
OVCAR-8 ovarian = test system: OVCAR-8 ovarian
RPMI-8226 leukemia = test system: RPMI-8226 leukemia
RXF 393 renal = test system: RXF 393 renal
RXF-631 renal = test system: RXF-631 renal
SF-268 CNS = test system: SF-268 CNS
SF-295 CNS = test system: SF-295 CNS
SF-539 CNS = test system: SF-539 CNS
SK-MEL-2 melanoma = test system: SK-MEL-2 melanoma
SK-MEL-28 melanoma = test system: SK-MEL-28 melanoma
SK-MEL-5 melanoma = test system: SK-MEL-5 melanoma
SK-OV-3 ovarian = test system: SK-OV-3 ovarian
SN12C renal = test system: SN12C renal
SNB-19 CNS = test system: SNB-19 CNS
SNB-75 CNS = test system: SNB-75 CNS
SNB-78 CNS = test system: SNB-78 CNS
SR leukemia = test system: SR leukemia
SW-620 colon = test system: SW-620 colon
TK-10 renal = test system: TK-10 renal
U251 CNS = test system: U251 CNS
UACC-257 melanoma = test system: UACC-257 melanoma
UACC-62 melanoma = test system: UACC-62 melanoma
UO-31 renal = test system: UO-31 renal
XF 498 CNS = test system: XF 498 CNS

## NCCc1ccc2oc3cc(=O)c4ccccc4c-3nc2c1
786-0 renal
  TGI: 4.89 µM
A498 renal
  TGI: 26.3 µM
A549 NSCLC
  TGI: 2.18 µM
ACHN renal
  TGI: 12 µM
CAKI-1 renal
  TGI: 24 µM
CCRF-CEM leukemia
  TGI: 4.49 µM
COLO 205 colon
  TGI: 1.81 µM
DLD-1 colon
  TGI: 9.34 µM
DMS 114 small cell lung
  TGI: 2.85 µM
DMS 273 small cell lung
  TGI: 3.11 µM
EKVX NSCLC
  TGI: 25.1 µM
HCC-2998 colon
  TGI: 6.78 µM
HCT-116 colon
  TGI: 2.87 µM
HCT-15 colon
  TGI: 5.01 µM
HL-60(TB) leukemia
  TGI: 3.42 µM
HOP-18 NSCLC
  TGI: 4.67 µM
HOP-62 NSCLC
  TGI: 10.3 µM
HOP-92 NSCLC
  TGI: 21.6 µM
HT29 colon
  TGI: 4.35 µM
IGROV1 ovarian
  TGI: 15.5 µM
K-562 leukemia
  TGI: 6.95 µM
KM12 colon
  TGI: 8.35 µM
KM20L2 colon
  TGI: 9.12 µM
LOX IMVI melanoma
  TGI: 4.42 µM
LXFL 529 NSCLC
  TGI: 13.4 µM
M14 melanoma
  TGI: 4.18 µM
M19-MEL melanoma
  TGI: 0.894 µM
MALME-3M melanoma
  TGI: 4.37 µM
MOLT-4 leukemia
  TGI: 5.52 µM
NCI-H226 lung
  TGI: 17.5 µM
NCI-H23 lung
  TGI: 2.39 µM
NCI-H460 lung
  TGI: 2.76 µM
NCI-H522 lung
  TGI: 7.66 µM
OVCAR-3 ovarian
  TGI: 8.12 µM
OVCAR-4 ovarian
  TGI: 15.8 µM
OVCAR-5 ovarian
  TGI: 15.4 µM
OVCAR-8 ovarian
  TGI: 10.6 µM
RPMI-8226 leukemia
  TGI: 23.2 µM
RXF 393 renal
  TGI: 9.94 µM
RXF-631 renal
  TGI: 8.88 µM
SF-268 CNS
  TGI: 15.4 µM
SF-295 CNS
  TGI: 9.48 µM
SF-539 CNS
  TGI: 6.35 µM
SK-MEL-2 melanoma
  TGI: 5.16 µM
SK-MEL-28 melanoma
  TGI: 10.7 µM
SK-MEL-5 melanoma
  TGI: 2.13 µM
SK-OV-3 ovarian
  TGI: 24.4 µM
SN12C renal
  TGI: 7.22 µM
SNB-19 CNS
  TGI: 11 µM
SNB-75 CNS
  TGI: 6.06 µM
SNB-78 CNS
  TGI: 23.3 µM
SR leukemia
  TGI: 4.67 µM
SW-620 colon
  TGI: 5.95 µM
TK-10 renal
  TGI: 27.3 µM
U251 CNS
  TGI: 10.6 µM
UACC-257 melanoma
  TGI: 7.4 µM
UACC-62 melanoma
  TGI: 8.58 µM
UO-31 renal
  TGI: 9.37 µM
XF 498 CNS
  TGI: 7.01 µM
